Reference: PubChem BioAssay (NCI)
Several values for one entry are separate records, joined by “and”; a condition that tells them apart may be missing. Equal entries are not always repeated.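 Each compound was tested at five concentrations against cells in 96-well plates for 48 hours. Abbreviation: GI50, concentration required for 50% inhibition of growth. At the TGI there is no net growth.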

Tests used:
Experiment in all cases: growth of human tumour cells (NCI), 48 h
OVCAR-3 ovarian = test system: OVCAR-3 ovarian
SR leukemia = test system: SR leukemia
M14 melanoma = test system: M14 melanoma
NCI-H522 lung = test system: NCI-H522 lung
786-0 renal = test system: 786-0 renal
IGROV1 ovarian = test system: IGROV1 ovarian
CAKI-1 renal = test system: CAKI-1 renal
SNB-19 CNS = test system: SNB-19 CNS
MDA-MB-231 breast = test system: MDA-MB-231 breast
A498 renal = test system: A498 renal

Row | SMILES | GI50 (OVCAR-3 ovarian) | TGI (OVCAR-3 ovarian) | GI50 (SR leukemia) | TGI (SR leukemia) | GI50 (M14 melanoma) | TGI (M14 melanoma) | GI50 (NCI-H522 lung) | TGI (NCI-H522 lung) | GI50 (786-0 renal) | TGI (786-0 renal) | GI50 (IGROV1 ovarian) | TGI (IGROV1 ovarian) | GI50 (CAKI-1 renal) | TGI (CAKI-1 renal) | GI50 (SNB-19 CNS) | TGI (SNB-19 CNS) | GI50 (MDA-MB-231 breast) [µM] | TGI (MDA-MB-231 breast) [µM] | TGI (A498 renal) | GI50 (A498 renal)
1 | [Cl][Cu][Cl] | > 10 µM | > 10 µM | > 10 µM | > 10 µM | > 10 µM | > 10 µM | > 10 µM | > 10 µM | > 10 µM | > 10 µM | > 10 µM | > 10 µM | > 10 µM | > 10 µM | > 10 µM | > 10 µM | > 10 | > 10 |  | 
2 | O=[N+]([O-])c1cc(Cc2cc([N+](=O)[O-])c3cccnc3c2O)c(O)c2ncccc12 |  | 6.71 µM |  |  |  | 30.1 µM |  | 38 µM |  | > 54.3 µM |  | 17.2 µM |  | 41.3 µM |  | 51.2 µM |  | 25.9 | 31.8 µM | 
3 | COc1c(OC(C)C)cc2cc(O)c(C(=O)NC3Cc4ccc(c(Cl)n4)O[C@@H]4C=C5C#C/C(=C\C#CC6OC56C4OC4CC(C)(O)C(O)C(C)O4)C(OC4CC(O)C(N(C)C)C(C)O4)COC3=O)cc2c1OC (stereo partly specified) | > 36.3 µM and 21.3 µg/mL | > 36.3 µM and 37.5 µg/mL | 8.27 µM and 0.0174 µg/mL | > 36.3 µM and 0.746 µg/mL | 32.7 µM and 2.8 µg/mL | > 36.3 µM and 21.4 µg/mL | 29.6 µM and 1.25 µg/mL | > 36.3 µM and 15.8 µg/mL | 7.1 µM and 0.244 µg/mL | > 36.3 µM and 2.79 µg/mL | > 36.3 µM and 37.5 µg/mL | > 36.3 µM and 37.5 µg/mL | 0.897 µg/mL | > 36.3 µM and 37.5 µg/mL | 17.7 µM and 0.956 µg/mL | > 36.3 µM and 37.5 µg/mL |  |  | > 36.3 µM and 8.7 µg/mL | 0.168 µg/mL
4 | COc1ccc2nc3cc(Cl)ccc3c(N3CCN(c4ccnc(N5CCN(C)CC5)n4)CC3)c2c1 | 1.84 µM | 3.25 µM | 2.19 µM | 5.94 µM | 2.04 µM | 4.06 µM | 1.61 µM | 3.13 µM | 1.61 µM | 3 µM | 2.24 µM | 5.08 µM | 1.57 µM | 3.07 µM | 2.23 µM | 5.44 µM |  |  | 40.7 µM | 10.3 µM
5 | CCOC(=O)C(Cc1ccc(N(CCCl)CCCl)cc1)NC(=O)C(Cc1ccccc1)NC(C)=O (stereo unspecified) |  | 0.361 µM |  | > 1 µM |  | > 0.318 µM |  |  |  | > 0.399 µM |  | > 0.308 µM |  | 0.419 µM |  | > 0.578 µM |  | > 0.366 | > 0.414 µM | 
6 | CSC1=Nc2c(c(C)c(-c3ccccc3)n2COC(CO)CO)C2=NC(=O)CN12 | > 100 µM | > 100 µM | > 100 µM | > 100 µM |  |  | > 100 µM | > 100 µM | > 100 µM | > 100 µM | 0.421 µM | 42.8 µM | > 100 µM | > 100 µM | > 100 µM | > 100 µM | > 100 | > 100 | > 100 µM | > 100 µM
7 | O=C(c1c(O)cc(O)cc1O)C1Cc2ccccc21 (stereo unspecified) |  |  |  | > 100 µM |  | > 100 µM |  | > 100 µM |  | > 100 µM |  | > 100 µM |  | > 100 µM |  | > 100 µM |  |  | > 100 µM | 
8 | CCOC(=O)C(CCCNC(=O)OC(C)(C)C)N(Cc1ccc(OC)cc1OC)C(=O)CC(=O)CP(=O)(OCC)OCC (stereo unspecified) |  | > 100 µM |  | > 100 µM |  | > 100 µM |  | > 100 µM |  | > 100 µM |  | > 100 µM |  | > 100 µM |  | > 100 µM |  |  | > 100 µM | 
9 | Cn1c(C(=O)c2cccc3ccccc23)nc2ccccc21 | > 100 µM | > 100 µM | > 100 µM | > 100 µM |  |  | > 100 µM | > 100 µM | > 100 µM | > 100 µM | > 100 µM | > 100 µM | 61 µM | > 100 µM | > 100 µM | > 100 µM | > 100 | > 100 | > 100 µM | 8.59 µM
10 | CC(=O)OCC(CC[CH2][Sn]([Cl])([Cl])[c]1ccccc1)OC(C)=O (stereo unspecified) | 20 µM | 42.8 µM | 10.7 µM | 50.4 µM | 16.2 µM | 29.7 µM | 41.1 µM | 55.6 µM | 19.1 µM | 38 µM | 25.5 µM | 68.8 µM | 14.6 µM | 30.9 µM | 27.7 µM | 74.6 µM |  |  |  | 
11 | CN1CCCC1c1cccnc1.O=C(O)c1ccccc1O.O=C([O-])c1ccccc1[OH2+].O=C([O-])c1ccccc1[OH2+].[Mn+2] (stereo unspecified) | 21.3 µM | 70.5 µM |  |  | > 100 µM | > 100 µM | 16.7 µM | 36.4 µM | > 100 µM | > 100 µM | > 100 µM | > 100 µM | > 100 µM | > 100 µM | > 100 µM | > 100 µM | > 100 | > 100 | > 100 µM | > 100 µM
12 | Cc1ccc(Cl)cc1-n1c(C)nc2c(cnn2-c2ccnc3c(C(F)(F)F)cccc23)c1=O | > 100 µM | > 100 µM |  |  |  |  | > 100 µM | > 100 µM | > 100 µM | > 100 µM | > 100 µM | > 100 µM | > 100 µM | > 100 µM | > 100 µM | > 100 µM | > 100 | > 100 |  | 
13 | C=CCN(CC=C)C(=O)[C@H](CC)[C@@H]1CC[C@@H](C)[C@@H]([C@H](C)[C@@H](O)[C@@H](C)C(=O)[C@H](CC)C2O[C@]3(C=C[C@@H](O)[C@]4(CC[C@@](C)([C@H]5CC[C@](O)(CC)[C@H](C)O5)O4)O3)[C@H](C)C[C@@H]2C)O1 (stereo partly specified) | 1.92 µM | 4.57 µM | 2.41 µM | 7.1 µM |  |  | 2.08 µM | 5.68 µM | 2.19 µM | 5.48 µM | 2.41 µM | 8.53 µM | 1.75 µM | 7.63 µM | 3.08 µM | > 100 µM | 1.77 | 3.84 | 5.32 µM | 2.07 µM
14 | N#CC1C(N)=NNC12Nc1ccccc1S2 (stereo unspecified) | 10.3 µM | 43.9 µM | 8.81 µM | 29.9 µM | 15.3 µM | 40.5 µM | 7.8 µM | 29.7 µM | 63.4 µM | > 100 µM | 3.22 µM | 20.6 µM | 23.4 µM | > 100 µM | 28.6 µM | > 100 µM | 3.59 | 16.6 |  | 
15 | C[P+]1(c2ccccc2)CCCCC1 |  | > 100 µM |  |  |  | > 100 µM |  |  |  | > 100 µM |  | > 100 µM |  | > 100 µM |  | > 100 µM |  |  | > 100 µM | 
